According to patent US7084301B2 (Ranbaxy Laboratories Limited, priority 2003, dated 2006):

Assays:
human α1D-adrenoceptors = target: T1, human α1D-adrenoceptors (Homo sapiens, UniProt P25100); assay: Radioligand-receptor binding assay, human recombinant α1D-adrenoceptor, [3H]prazosin
T1 sequence (P25100 1-572): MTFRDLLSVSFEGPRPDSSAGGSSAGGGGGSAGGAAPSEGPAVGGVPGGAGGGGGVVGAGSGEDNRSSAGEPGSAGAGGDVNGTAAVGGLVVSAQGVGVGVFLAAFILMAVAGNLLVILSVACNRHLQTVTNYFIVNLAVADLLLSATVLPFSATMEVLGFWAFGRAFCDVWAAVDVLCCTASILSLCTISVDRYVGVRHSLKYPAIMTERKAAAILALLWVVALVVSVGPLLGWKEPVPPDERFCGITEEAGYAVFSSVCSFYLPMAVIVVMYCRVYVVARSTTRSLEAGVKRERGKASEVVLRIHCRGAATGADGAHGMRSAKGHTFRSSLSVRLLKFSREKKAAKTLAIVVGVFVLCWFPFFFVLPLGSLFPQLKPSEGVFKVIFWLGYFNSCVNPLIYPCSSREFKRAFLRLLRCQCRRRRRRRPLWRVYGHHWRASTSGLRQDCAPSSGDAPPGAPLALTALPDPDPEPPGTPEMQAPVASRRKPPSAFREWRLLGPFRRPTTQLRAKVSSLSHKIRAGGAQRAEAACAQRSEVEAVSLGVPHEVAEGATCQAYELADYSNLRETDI
Description: (§1) Chinese hamster ovary (CHO) cells which had been stably transfected with human α1A, α1B, or α1D-adrenoceptors (Keffel et al., Biochem. Biophys. Res. Commun., 2000, 272, 906–11) were cultured in an atmosphere of 5% CO2/95% air at 37° C. in F-12 HAM medium supplemented with 10% heat-inactivated fetal calf serum, 1 mM glutamine, 100 U/ml penicillin and 0.1 mg/ml streptomycin. Selection pressure was maintained by regular addition of geneticin to the culture medium.
(§2) Competitive radioligand binding to the cloned subtypes of […] was performed using [^3H]prazosin as the radioligand as described by Michel et al, Br. J. Pharmacol., 98, 883–889 (1989) with minor modifications. Experiments were performed in binding buffer consisting of 50 mM Tris, 10 mM MgCl2 and 0.5 mM EDTA at pH 7.5 in a total assay volume of 1000 μl. The protein content typically was 40–60 μg/assay. The mixtures were incubated at 25° C. for 45 minutes. Incubations were terminated by rapid vacuum filtration over GF/C filters followed by two washes of the filters each with 10 ml ice-cold incubation buffer. Non-specific binding was defined as binding in the presence of 10 μM phentolamine.
(§3) The IC50 & Kd were estimated by using the non-linear curve fitting program using G Pad Prism software. The value of inhibition constant Ki was calculated from competitive binding studies by using Cheng & Prusoff equation [Cheng & Prusoff, Biochem. Pharmacol., 22, 3099–3108 (1973)], Ki=IC50/(1+L/Kd), where L is the concentration of [^3H] prazosin used in the particular experiment. Kd of [^3H] prazosin was determined from saturation binding studies. The values were tabulated as mean±SEM of pKi values, where pKi is the −log of Ki value.

human α1A-adrenoceptors = target: T2, human α1A-adrenoceptors (Homo sapiens, UniProt P35348); assay: Radioligand-receptor binding assay, human recombinant α1A-adrenoceptor, [3H]prazosin; conditions: human recombinant receptors in CHO cells, mean ± SEM; read-out: pKi α1A (converted)
T2 sequence (P35348 1-466): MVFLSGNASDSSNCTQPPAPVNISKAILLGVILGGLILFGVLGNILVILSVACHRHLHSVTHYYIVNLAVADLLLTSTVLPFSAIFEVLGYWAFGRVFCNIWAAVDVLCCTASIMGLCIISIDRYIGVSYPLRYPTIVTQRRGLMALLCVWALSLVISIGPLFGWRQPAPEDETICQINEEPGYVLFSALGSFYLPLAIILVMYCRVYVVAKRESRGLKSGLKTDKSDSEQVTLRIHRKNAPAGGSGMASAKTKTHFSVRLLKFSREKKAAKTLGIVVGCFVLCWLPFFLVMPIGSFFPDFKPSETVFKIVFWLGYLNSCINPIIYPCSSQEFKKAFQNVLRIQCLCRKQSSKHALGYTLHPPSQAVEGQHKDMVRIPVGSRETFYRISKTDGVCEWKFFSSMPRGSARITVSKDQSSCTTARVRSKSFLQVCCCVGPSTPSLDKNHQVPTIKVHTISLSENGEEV
Description: as §1, §2, §3

human α1B-adrenoceptors = target: T3, human α1B-adrenoceptors (Homo sapiens, UniProt P35368); assay: Radioligand-receptor binding assay, human recombinant α1B-adrenoceptor, [3H]prazosin
T3 sequence (P35368 1-520): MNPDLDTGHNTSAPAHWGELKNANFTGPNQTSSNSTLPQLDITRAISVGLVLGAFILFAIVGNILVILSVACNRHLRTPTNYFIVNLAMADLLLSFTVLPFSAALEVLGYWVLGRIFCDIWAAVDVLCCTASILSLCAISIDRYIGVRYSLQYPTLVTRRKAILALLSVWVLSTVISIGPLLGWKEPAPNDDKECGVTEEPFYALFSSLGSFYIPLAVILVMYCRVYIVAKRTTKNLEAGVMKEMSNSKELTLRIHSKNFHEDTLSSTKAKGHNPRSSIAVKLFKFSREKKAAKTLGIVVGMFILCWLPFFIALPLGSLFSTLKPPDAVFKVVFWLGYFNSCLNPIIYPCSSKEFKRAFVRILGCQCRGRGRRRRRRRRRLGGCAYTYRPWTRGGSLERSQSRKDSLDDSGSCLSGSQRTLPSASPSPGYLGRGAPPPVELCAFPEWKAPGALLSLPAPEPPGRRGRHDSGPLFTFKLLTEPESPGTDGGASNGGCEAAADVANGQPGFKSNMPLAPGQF
Description: as §1, §2, §3

Work on `CCOc1ccccc1OCCN[C@@H](C)Cc1ccc(O)c(S(N)(=O)=O)c1` [(S)-isomer] yielded a Ki (human α1D-adrenoceptors) of 7.94 nM, a Ki (human α1A-adrenoceptors) of 2.24 nM and a Ki (human α1B-adrenoceptors) of 21.9 nM.

Compound `CCOc1ccccc1OCCNC(C)Cc1ccc(O)c(S(N)(=O)=O)c1` (racemic) [Racemate] has a Ki (human α1D-adrenoceptors) of 0.214 nM, a Ki (human α1A-adrenoceptors) of 0.0832 nM and a Ki (human α1B-adrenoceptors) of 1.1 nM.
